According to PMC4855798, “Cell-bound lipases from Burkholderia sp. ZYB002: gene sequence analysis, expression, enzymatic characterization, and 3D structural model” (BMC Biotechnology, 2016):

Tested on: T1, LipC24
T1 construct: mature LipC24 coding region (ORF 438 aa), His6-tag, E. coli Origami2 (DE3), co-expressed with foldase LipB lacking N-terminal 70 residues; purified by HisTrap and DEAE, single 45 kDa band; counterpart in B. cepacia J2315 is BCAM2764
Assay: spectrophotometric 4-nitrophenol release, non-linear regression
Assay type: biochemical, Burkholderia sp. ZYB002
Settings: 40 °C, 20 mmol/L Na2HPO4-NaH2PO4 buffer pH 7.5; 0.1-1.8 mmol/L substrate

CCCCCCCCCCCCCC(=O)Oc1ccc([N+](=O)[O-])cc1 [4-nitrophenyl myristate]
Km: 370 ± 70 µM
